Data reported in patent publication US20100160207A1, “Feedback Prodrug” (University of Georgia Research Foundation, Inc., priority 2006, published 2010).

Tests used:
[1] = target: T1, drosophila Golgi α-mannosidase II (dGMII) (Drosophila melanogaster, UniProt Q24451); experiment: Affinity of N-benzyl mannostatin for Golgi α-mannosidase II; type: binding
T1 sequence (Q24451 1-1108): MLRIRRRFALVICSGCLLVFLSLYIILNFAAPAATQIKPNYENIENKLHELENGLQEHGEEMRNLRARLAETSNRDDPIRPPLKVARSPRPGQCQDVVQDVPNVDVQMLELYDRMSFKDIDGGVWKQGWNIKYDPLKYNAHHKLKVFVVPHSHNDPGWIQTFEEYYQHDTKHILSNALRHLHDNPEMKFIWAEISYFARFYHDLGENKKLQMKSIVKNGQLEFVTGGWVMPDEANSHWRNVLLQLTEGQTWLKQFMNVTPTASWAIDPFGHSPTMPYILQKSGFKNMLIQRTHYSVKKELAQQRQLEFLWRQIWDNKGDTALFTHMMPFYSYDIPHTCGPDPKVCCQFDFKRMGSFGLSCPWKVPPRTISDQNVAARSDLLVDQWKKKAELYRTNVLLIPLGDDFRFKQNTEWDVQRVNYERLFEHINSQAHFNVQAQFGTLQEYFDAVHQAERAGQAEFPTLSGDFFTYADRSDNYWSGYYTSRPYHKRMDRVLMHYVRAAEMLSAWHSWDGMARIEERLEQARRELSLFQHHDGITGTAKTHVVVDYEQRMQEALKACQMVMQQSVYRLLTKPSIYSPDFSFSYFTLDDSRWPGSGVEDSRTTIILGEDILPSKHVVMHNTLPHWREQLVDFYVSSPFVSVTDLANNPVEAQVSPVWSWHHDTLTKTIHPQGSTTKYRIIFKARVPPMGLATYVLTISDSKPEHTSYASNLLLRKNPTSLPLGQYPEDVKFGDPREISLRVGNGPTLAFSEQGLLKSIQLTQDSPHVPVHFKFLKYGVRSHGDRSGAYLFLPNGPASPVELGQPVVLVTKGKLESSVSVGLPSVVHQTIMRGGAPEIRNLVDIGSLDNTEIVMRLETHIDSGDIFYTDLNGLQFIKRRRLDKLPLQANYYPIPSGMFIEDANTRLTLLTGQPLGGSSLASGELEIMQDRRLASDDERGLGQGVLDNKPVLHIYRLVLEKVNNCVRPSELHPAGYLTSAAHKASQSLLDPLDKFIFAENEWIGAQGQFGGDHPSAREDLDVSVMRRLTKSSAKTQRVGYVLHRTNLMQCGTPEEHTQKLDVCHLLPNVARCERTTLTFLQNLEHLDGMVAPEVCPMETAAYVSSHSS
Excerpt: The finding was ultimately explained by careful examination of the crystal structure of dGMII with the synthetic inhibitor; see Kawatkar et al., J. Am. Chem. Soc., 128, 8310-8319 (2006).

α-L-fucosidase = experiment: Negative enzyme control experiment, α-L-fucosidase; type: biochemical; conditions: 0.1 Unit, MES buffer pH 5.5, 37° C., 20 h
Description: (§1) Compounds 1 and 2 were subjected to an α-glucosidase, α-fucosidase and α-galactosidase.
(§2) Negative enzyme control experiments. A solution of compound 1 or 2 (0.004 mmol) and α-glucosidase, α-galactosidase or α-L-fucosidase (0.1 Unit) in MES buffer (0.05 M; pH 6.8 for α-glucosidase, pH 6.5 for α-galactosidase or pH 5.5 for α-L-fucosidase; 1 ml) was incubated at 37° C. for 20 h, after which the reaction mixture was freezing-dried, and the solid residue was analyzed by ^1H NMR spectrometry and mass spectrometry.

[2] = target: T2, human lysosomal mannosidase (HLM) (Homo sapiens, UniProt O00754); experiment: Enzymatic cleavage of prodrugs by human lysosomal mannosidase monitored by 1H NMR; type: biochemical; conditions: HLM 20 mU, 80 nmol compound, sodium acetate buffer pH 5.6, 37° C.
T2 sequence (O00754 50-1011): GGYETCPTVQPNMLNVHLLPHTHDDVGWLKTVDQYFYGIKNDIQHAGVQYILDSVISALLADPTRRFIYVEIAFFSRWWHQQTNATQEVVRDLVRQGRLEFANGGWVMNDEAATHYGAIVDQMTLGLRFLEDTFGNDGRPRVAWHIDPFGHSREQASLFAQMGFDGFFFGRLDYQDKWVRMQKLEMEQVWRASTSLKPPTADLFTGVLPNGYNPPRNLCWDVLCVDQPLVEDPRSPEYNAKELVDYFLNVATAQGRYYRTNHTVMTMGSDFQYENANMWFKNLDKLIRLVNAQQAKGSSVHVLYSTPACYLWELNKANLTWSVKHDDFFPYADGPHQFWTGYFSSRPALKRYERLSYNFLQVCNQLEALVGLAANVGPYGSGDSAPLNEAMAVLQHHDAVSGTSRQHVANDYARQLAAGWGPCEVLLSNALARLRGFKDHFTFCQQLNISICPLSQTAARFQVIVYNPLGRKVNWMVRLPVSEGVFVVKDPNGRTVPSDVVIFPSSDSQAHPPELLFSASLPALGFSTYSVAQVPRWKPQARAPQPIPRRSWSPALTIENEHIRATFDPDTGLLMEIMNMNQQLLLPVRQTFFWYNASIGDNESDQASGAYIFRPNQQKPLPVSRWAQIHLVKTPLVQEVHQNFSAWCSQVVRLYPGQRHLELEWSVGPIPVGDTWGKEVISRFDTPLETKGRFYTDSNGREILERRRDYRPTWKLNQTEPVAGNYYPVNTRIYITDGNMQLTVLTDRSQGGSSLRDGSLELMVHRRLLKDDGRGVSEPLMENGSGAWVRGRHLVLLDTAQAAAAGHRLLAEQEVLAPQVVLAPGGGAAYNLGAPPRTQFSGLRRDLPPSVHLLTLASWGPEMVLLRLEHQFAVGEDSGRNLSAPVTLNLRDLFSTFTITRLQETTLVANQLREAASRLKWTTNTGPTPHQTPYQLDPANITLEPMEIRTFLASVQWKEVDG
Description: HLM ([…]) was added to a solution of 2 (a) or 1 (b) ([…]) in a deuterated sodium acetate buffer (100 mM, pH, 5.6, 0.2 mL) and the enzymatic cleavage was monitored by ^1H NMR (600 MHz).
The enzymatic cleavage of 1 and 2 by human lysosomal mannosidase (HLM) was monitored by ^1H NMR (600 MHz) (Wilson et al., Org. Lett. 1999, 1, 443) Thus, HLM (20 mU) was added to a solution of 1 or 2 (80 nmol) dissolved in a deuterated sodium acetate buffer (100 mM, pH 5.6, 0.2 mL). The progress of the reaction was monitored by the integration of key signals of the starting material, the intermediate and final product. […] In this case, the released mannostatin A (5) inhibits HLM terminating further hydrolysis of 1. Mannostatin A is a potent inhibitor of retaining α-mannosidases (Ki=90 nM, HLM) (Li et al., Chem. Bio. Chem. 2004, 5, 1220) and thus the release of low concentrations of the active compound is sufficient to abolish enzyme activity.
Kinetic measurements. A solution of compound 1 or 2 (0.08 μmol) and human lysosomal mannosidase (HLM, 0.02 Unit) in deuterated sodium acetate buffer (0.1 M; pH 5.6; 0.2 ml) was incubated at 37° C., and ^1H NMR spectra (600 MHz) were recorded at different time intervals. Relevant signals were integrated to determine the rate of enzymatic hydrolysis, and the appearance of the intermediate and the final product.

[3] = Treatment with cell lysate in the presence of swainsonine and kifunensine; type: in vitro ADME
α-galactosidase = experiment: Negative enzyme control experiment, α-galactosidase; type: biochemical; conditions: 0.1 Unit, MES buffer pH 6.5, 37° C., 20 h
Description: as §1, §2

α-glucosidase = experiment: Negative enzyme control experiment, α-glucosidase; type: biochemical; conditions: 0.1 Unit, MES buffer pH 6.8, 37° C., 20 h
Description: as §1, §2

[4] = Stability measurements in deuterated sodium acetate buffer by 1H NMR; type: physicochemical; conditions: 0.4 mM, sodium acetate buffer pH 4.0, 37° C., 6 days
Description: Stability measurements. A solution of compound 1 or 2 (0.4 mM) in deuterated sodium acetate buffer (100 mM; pH 4.0; 0.2 ml) in a NMR tube was incubated at 37° C. for 6 days. ^1H NMR spectra were recorded every day.

affinity compared with mannostatin A [1]	decomposition by α-L-fucosidase (α-L-fucosidase)	enzymatic hydrolysis of the prodrug by HLM [2]	decomposition in cell lysate [3]	decomposition by α-galactosidase (α-galactosidase)	decomposition by α-glucosidase (α-glucosidase)	decomposition in buffer [4]	SMILES
slightly reduced affinity	–	–	–	–	–	–	CSC1C(O)C(O)C(O)C1NCc1ccccc1 (stereo not shown) [N-benzyl mannostatin]
–	No decomposition of product was observed	virtually no hydrolysis was observed	did not lead to decomposition	No decomposition of product was observed	No decomposition of product was observed	No decomposition of product was observed	CSC1C(O)C(O)C(O)C1NC(=O)OCc1ccc(O[C@H]2O[C@H](CO)[C@@H](O)[C@H](O)[C@@H]2O)cc1 (stereo partly drawn) [Compound 1, 1D-(1,2,3,4/5)-4-[4-(α-D-mannopyranosyloxy)-benzyloxycarbonyl]amino-5-(methylsulfanyl)cyclopentane-1,2,3-triol]
